Laboratory results taken from US11230538B2, “Herbicides” (SYNGENTA PARTICIPATIONS AG, priority 2016, dated 2022).

Assays:
Assay type in all cases: in vivo
[1] = test system: Alopecurus myosuroides (ALOMY); assay: B1 Pre-emergence herbicidal activity; design: key: 5=total damage to plant; 0=no damage to plant; conditions: pre-emergence application, rate 1000 g/ha, evaluated after 13 days
Method: (§1) Seeds of a variety of test species were sown in standard soil in pots: Triticum aestivium (TRZAW), Avena fatua (AVEFA), Alopecurus myosuroides (ALOMY), Echinochloa crus-galli (ECHCG), Lolium perenne (LOLPE), Zea Mays (ZEAMX), Abutilon theophrasti (ABUTH), Amaranthus retroflexus (AMARE) and Setaria fabenr (SETFA). After cultivation for one day (pre-emergence) under controlled conditions in a glasshouse (at 24/16° C., day/night; 14 hours light; 65% humidity), the plants were sprayed with an aqueous spray solution derived from the formulation of the technical active ingredient in acetone I water (50:50) solution containing 0.5% Tween 20 (polyoxyethelyene sorbitan monolaurate, CAS RN 9005-64-5). The test plants were then grown in a glasshouse under controlled conditions (at 24/16° C., day/night; 14 hours light; 65% humidity) and watered twice daily. After 13 days, the test was evaluated (5=total damage to plant; 0=no damage to plant).

Avena fatua (AVEFA) [2] = assay: B1 Pre-emergence herbicidal activity; design: key: 5=total damage to plant; 0=no damage to plant; conditions: pre-emergence application, rate 1000 g/ha, evaluated after 13 days
Method: as §1

[3] = test system: Triticum aestivium (TRZAW); assay: B1 Pre-emergence herbicidal activity; design: key: 5=total damage to plant; 0=no damage to plant; conditions: pre-emergence application, rate 1000 g/ha, evaluated after 13 days
Method: as §1

[4] = test system: Echinochloa crus-galli (ECHCG); assay: B1 Pre-emergence herbicidal activity; design: key to Pre-emergence herbicidal activity, ECHCG (damage score 0-5): 5=total damage to plant; 0=no damage to plant; conditions: pre-emergence application, rate 1000 g/ha, evaluated after 13 days
Method: as §1

Lolium perenne (LOLPE) [5] = assay: B1 Pre-emergence herbicidal activity; design: key to Pre-emergence herbicidal activity, LOLPE (damage score 0-5): 5=total damage to plant; 0=no damage to plant; conditions: pre-emergence application, rate 1000 g/ha, evaluated after 13 days
Method: as §1

Setaria fabenr (SETFA) = assay: B1 Pre-emergence herbicidal activity; design: key to Pre-emergence herbicidal activity, SETFA (damage score 0-5): 5=total damage to plant; 0=no damage to plant; conditions: pre-emergence application, rate 1000 g/ha, evaluated after 13 days
Method: as §1

Avena fatua (AVEFA) [6] = assay: B2 Post-emergence herbicidal activity; conditions: post-emergence application, rate 1000 g/ha, evaluated after 13 days
Method: (§2) Seeds of a variety of test species were sown in standard soil in pots: Triticum aestivium (TRZAW), Avena fatua (AVEFA), Alopecurus myosuroides (ALOMY), Echinochloa crus-galli (ECHCG), Lolium perenne (LOLPE), Zea Mays (ZEAMX), Abutilon theophrasti (ABUTH), Amaranthus retroflexus (AMARE) and Setaria fabenri (SETFA). After 8 days cultivation (post-emergence) under controlled conditions in a glasshouse (at 24/16° C., day/night; 14 hours light; 65% humidity), the plants were sprayed with an aqueous spray solution derived from the formulation of the technical active ingredient in acetone I water (50:50) solution containing 0.5% Tween 20 (polyoxyethelyene sorbitan monolaurate, CAS RN 9005-64-5). The test plants were then grown in a glasshouse under controlled conditions (at 24/16° C., day/night; 14 hours light; 65% humidity) and watered twice daily. After 13 days, the test was evaluated (5=total damage to plant; 0=no damage to plant).

[7] = test system: Echinochloa crus-galli (ECHCG); assay: B2 Post-emergence herbicidal activity; design: key to Post-emergence herbicidal activity, ECHCG (damage score 0-5): 5=total damage to plant; 0=no damage to plant; conditions: post-emergence application, rate 1000 g/ha, evaluated after 13 days
Method: as §2

Lolium perenne (LOLPE) [8] = assay: B2 Post-emergence herbicidal activity; design: key to Post-emergence herbicidal activity, LOLPE (damage score 0-5): 5=total damage to plant; 0=no damage to plant; conditions: post-emergence application, rate 1000 g/ha, evaluated after 13 days
Method: as §2

[9] = test system: Alopecurus myosuroides (ALOMY); assay: B2 Post-emergence herbicidal activity; design: key: 5=total damage to plant; 0=no damage to plant; conditions: post-emergence application, rate 1000 g/ha, evaluated after 13 days
Method: as §2

Setaria fabenri (SETFA) = assay: B2 Post-emergence herbicidal activity; design: key: 5=total damage to plant; 0=no damage to plant; conditions: post-emergence application, rate 1000 g/ha, evaluated after 13 days
Method: as §2

[10] = test system: Triticum aestivium (TRZAW); assay: B2 Post-emergence herbicidal activity; design: key: 5=total damage to plant; 0=no damage to plant; conditions: post-emergence application, rate 1000 g/ha, evaluated after 13 days
Method: as §2

Compound	Pre-emergence herbicidal activity, ALOMY (damage score 0-5) [1]	Pre-emergence herbicidal activity, AVEFA (damage score 0-5) (Avena fatua (AVEFA) [2])	Pre-emergence herbicidal activity, TRAZW (damage score 0-5) [3]	Pre-emergence herbicidal activity, ECHCG (damage score 0-5) [4]	Pre-emergence herbicidal activity, LOLPE (damage score 0-5) (Lolium perenne (LOLPE) [5])	Pre-emergence herbicidal activity, SETFA (damage score 0-5) (Setaria fabenr (SETFA))	Post-emergence herbicidal activity, AVEFA (damage score 0-5) (Avena fatua (AVEFA) [6])	Post-emergence herbicidal activity, ECHCG (damage score 0-5) [7]	Post-emergence herbicidal activity, LOLPE (damage score 0-5) (Lolium perenne (LOLPE) [8])	Post-emergence herbicidal activity, ALOMY (damage score 0-5) [9]	Post-emergence herbicidal activity, SETFA (damage score 0-5) (Setaria fabenri (SETFA))	Post-emergence herbicidal activity, TRAZW (damage score 0-5) [10]
Cc1nc(-c2cncc(F)c2)ccc1N(C(=O)C(C)C)C(=O)C(C)C [Compound C1]	0	2	1	5	1	5	3	5	4	1	5	1
Cc1nc(-c2cncnc2)ccc1NC(=O)C(C)C [Compound C2, 2-methyl-N-(2-methyl-6-pyrimidin-5-yl-3-pyridyl)propanamide]	0	0	0	3	1	5	3	5	2	1	5	1
Cc1nc(-c2cncc(F)c2)ccc1NC(=O)C(C)C [Compound C3]	0	0	0	4	1	5	3	5	3	1	5	1
CC(C)C(=O)N(C)c1ccc(-c2cncc(F)c2)nc1C(F)(F)F [Compound C4, N-[6-(5-fluoro-3-pyridyl)-2-(trifluoromethyl)-3-pyridyl]-N,2-dimethyl-propanamide]	0	1	0	4	5	1	4	4	5	1	3	1
CC(=O)N(C(C)=O)c1ccc(-c2cncc(F)c2)nc1C(F)(F)F [Compound C5, N-acetyl-N-[6-(5-fluoro-3-pyridyl)-2-(trifluoromethyl)-3-pyridyl]acetamide]	1	3	0	4	1	5	4	4	4	1	5	0
O=C(Nc1ccc(-c2cncnc2)nc1C(F)(F)F)c1ccccc1 [Compound C17]	0	3	0	4	1	5	3	5	2	0		0
O=C(CC1CCCCC1)Nc1ccc(-c2cncc(F)c2)nc1C(F)(F)F [Compound C19]	0	2	0	3	0	5	3	4	1	0		0
O=C(Nc1ccc(-c2cncc(F)c2)nc1C(F)(F)F)C1CCCCC1 [Compound C20]	0	2	0	4	0	5	3	4	2	0		0
O=C(Nc1ccc(-c2cncc(F)c2)nc1C(F)(F)F)C1CCC1 [Compound C21]	0	2	0	4	1	5	3	5	2	0		0
CCCC(=O)Nc1ccc(-c2cncc(F)c2)nc1C(F)(F)F [Compound C22]	0	2	0	4	1	5	3	4	2	0		0
CCC(=O)Nc1ccc(-c2cncnc2)nc1C#N [Compound C116]	0	1		3	0	5	2	4	1	0	5	0
